Laboratory results: patent US12576253B2, “Drug delivery device with intravesical tolerability” (priority 2009, dated 2026)

Conditions: two six-day rabbits (4 mg device), spinal cord puncture at L7 just prior to euthanasia

## CCN(CC)CC(=O)Nc1c(C)cccc1C [lidocaine]
  lidocaine in cerebrospinal fluid: not detected
